For assay [1], the system named is KRAS_G12C pERK in MIA PaCa-2 cells. Briefly: Whole Blood pERK1/2 HTRF assay (KRAS_G12C WB pERK assay). The conditions noted are these: compound in whole blood, 4 hours, read-out: G12C_WB_pERK. Type of assay: cell-based, human. As for the experimental part: MIA PaCa-2 cells (KRAS G12C; ATCC® CRL-1420), HPAF-II (KRAS G12D; ATCC® CRL-1997) and YAPC (KRAS G12V; DSMZ ACC382) are maintained in RPMI 1640 with 10% FBS (Gibco/Life Technologies). For MIA PaCa-2 assay, cells are seeded into 96 well tissue culture plates (Corning #3596) at 25000 cells per well in 100 uL media and cultured for 2 days at 37° C., 5% CO2 before the assay. For HPAF-II and YAPC assay, cells are seeded in 96 well tissue culture plates at 50000 cells per well in 100 uL media and cultured for 1 day before the assay. Whole Blood are added to the 1 uL dots of compounds (prepared in DMSO) in 96 well plates and mixed gently by pipetting up and down so that the concentration of the compound in blood is 1× of desired concentration, in 0.5% DMSO. The media is aspirated from the cells and 50 uL per well of whole blood with test compound is added and incubated for 4 hours for MIA PaCa and YAPC assay; or 2 hours for HPAF-II assay, respectively at 37° C., 5% CO2. After dumping the blood, the plates are gently washed twice by adding PBS to the side of the wells and dumping the PBS from the plate onto a paper towel, tapping the plate to drain well. Fifty ul/well of 1× lysis buffer #1 (Cisbio) with blocking reagent (Cisbio) and Benzonase nuclease (Sigma Cat #E1014-5KU, 1:10000 final concentration) is then added and incubated at room temperature for 30 minutes with shaking (250 rpm). Following lysis, 16 uL of lysate is transferred into 384-well Greiner small volume white plate using an Assist Plus (Integra Biosciences, NH). Four uL of 1:1 mixture of anti Phospho-ERK 1/2 d2 and anti Phospho-ERK 1/2 Cryptate (Cisbio) is added to the wells using the Assist Plus and incubated at room temperature overnight in the dark. Plates are read on the Pherastar plate reader at 665 nm and 620 nm wavelengths. Data are analyzed in Genedata Screener using SmartFit for IC50 values.
(In general: In TR-FRET formats the signal depends on donor and acceptor labels being close together.)

A further assay deals with KRAS G12C (Homo sapiens, UniProt P01116, G12C). Briefly: GDP-GTP exchange assay (KRAS_G12C exchange assay). It counts as biochemical. The conditions noted are these: bodipy-loaded KRAS G12C 2.5 nM, SOS1 150 nM, 2 hours pre-incubation with inhibitor; read-out: G12C_exchange. As for the experimental part: The inhibitor potency of the exemplified compounds was determined in a fluorescence based guanine nucleotide exchange assay, which measures the exchange of bodipy-GDP (fluorescently labeled GDP) for GppNHp (Non-hydrolyzable GTP analog) to generate the active state of KRAS in the presence of SOS1 (guanine nucleotide exchange factor). Inhibitors were serially diluted in DMSO and a volume of 0.1 μL was transferred to the wells of a black low volume 384-well plate. 5 μL/well volume of bodipy-loaded KRAS G12C diluted to 5 nM in assay buffer (25 mM Hepes pH 7.5, 50 mM NaCl, 10 mM MgCl2 and 0.01% Brij-35) was added to the plate and pre-incubated with inhibitor for 2 hours at ambient temperature. Appropriate controls (enzyme with no inhibitor or with a G12C inhibitor (AMG-510)) were included on the plate. The exchange was initiated by the addition of a 5 μL/well volume containing 1 mM GppNHp and 300 nM SOS1 in assay buffer. The 10 μL/well reaction concentration of the bodipy-loaded KRAS G12C, GppNHp, and SOS1 were 2.5 nM, 500 uM, and 150 nM, respectively. The reaction plates were incubated at ambient temperature for 2 hours, a time estimated for complete GDP-GTP exchange in the absence of inhibitor. For the KRAS G12D and G12V mutants, similar guanine nucleotide exchange assays were used with 2.5 nM as final concentration for the bodipy loaded KRAS proteins and with 4 hours and 3 hours incubation after adding GppNHp-SOS1 mixture for G12D and G12V respectively. A cyclic peptide described to selectively bind G12D mutant (Sakamoto et al., BBRC 484.3 (2017), 605-611) or internal compounds with confirmed binding were used as positive controls in the assay plates. Fluorescence intensities were measured on a PheraStar plate reader instrument (BMG Labtech) with excitation at 485 nm and emission at 520 nm.
Sequence of KRAS G12C (P01116 1-188 isoform P01116-2 G12C): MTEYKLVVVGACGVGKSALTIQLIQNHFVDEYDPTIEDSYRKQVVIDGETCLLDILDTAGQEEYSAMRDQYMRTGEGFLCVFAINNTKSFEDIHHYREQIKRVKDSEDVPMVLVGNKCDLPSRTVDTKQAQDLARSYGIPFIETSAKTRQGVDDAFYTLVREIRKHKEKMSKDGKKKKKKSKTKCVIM
Either GraphPad prism or Genedata Screener SmartFit was used to analyze the data. The IC50 values were derived by fitting the data to a four parameter logistic equation producing a sigmoidal dose-response curve with a variable Hill coefficient.

In the next assay the test system is KRAS_G12C pERK. Put plainly: Cellular pERK HTRF assay (KRAS_G12C pERK assay). The conditions noted are these: KRAS G12C cells, 4 hours incubation with compound, read-out: G12C_pERK. Type of assay: cell-based, human. On the procedure:
MIA PaCa-2 (KRAS G12C; ATCC® CRL-1420), NCI-H358 (KRAS G12C; ATCC® CRL-5807), A427 (KRAS G12D; ATCC® HTB53), HPAFII (KRAS G12D; ATCC® CRL-1997), YAPC (KRAS G12V; DSMZ ACC382), SW480 (KRAS G12V; ATCC® CRL-228) and NCI-H838 (KRAS WT; ATCC® CRL-5844) cells are purchased from ATCC and maintained in RPMI 1640 media supplemented with 10% FBS (Gibco/Life Technologies). The cells are plated at 5000 cells per well (8 uL) into Greiner 384-well low volume, flat-bottom, and tissue culture treated white plates and incubated overnight at […], 5% CO2. The next morning, test compound stock solutions are diluted in media at 3× the final concentration and 4 uL are added to the cells, with a final concentration of 0.1% of DMSO. The cells are incubated with the test compounds for 4 hours (G12C and G12V) or 2 hrs (G12D) at 37° C., 5% CO2. Four uL of 4× lysis buffer with blocking reagent (Cisbio) are added to each well and plates are rotated gently (300 rpm) for 30 minutes at room temperature. Four uL per well of Cisbio anti Phospho-ERK 1/2 d2 is mixed with anti Phospho-ERK 1/2 Cryptate (1:1), and added to each well, incubated overnight in the dark at room temperature. Plates are read on the Pherastar plate reader at 665 nm and 620 nm wavelengths. Data are analyzed in Genedata Screener using SmartFit for IC50 values.

Structures are written as SMILES. Read-outs that look alike come from different tables or passages of the source.

Consider `C=C(F)C(=O)N1CC[C@H](n2nnc3c(N4CC(C)(N(C)C)C4)nc4c(F)c(-c5cccc6cccc(C#N)c56)c(C)cc4c32)C[C@H]1CC#N` (single isomer, unassigned) [Example 17a], for which the IC50 in assay [1] (Homo sapiens) is 50 to 100 nM; at KRAS G12C it was at most 50 nM; with KRAS_G12C pERK (Homo sapiens, 4 h) it was at most 50 nM.

As for `C=C(F)C(=O)N1CC[C@H](n2nnc3c(O[C@@H](C)[C@@H]4CCCN4C)nc4c(F)c(-c5c(C)ncc6ccccc56)c(C)cc4c32)C[C@H]1CC#N` (single isomer, unassigned) [Example 23b], the IC50 was at most 50 nM in assay [1] (Homo sapiens); at most 50 nM at KRAS G12C; at most 50 nM in the assay with KRAS_G12C pERK (Homo sapiens, 4 h).

Regarding `COC/C=C/C(=O)N1CC[C@H](n2nnc3c(O[C@@H](C)[C@@H]4CCCN4C)nc4c(F)c(-c5c(C)ncc6ccccc56)c(C)cc4c32)C[C@H]1CC#N` (single isomer, unassigned) [Example 24b], the IC50 (in assay [1] (Homo sapiens); on KRAS G12C; with KRAS_G12C pERK) was at most 50 nM in each case.

In the case of `C=C(F)C(=O)N1CC[C@H](n2nnc3c(O[C@@H](C)[C@@H]4CCCN4C)nc4c(F)c(-c5c(F)ccc6ccc(C)nc56)c(C)cc4c32)C[C@H]1CC#N` (single isomer, unassigned) [Example 25a], the IC50 in assay [1] (Homo sapiens) is 50 to 100 nM; on KRAS G12C, at most 50 nM; in the assay with KRAS_G12C pERK (Homo sapiens, 4 h), at most 50 nM.

Consider `COC/C=C/C(=O)N1CC[C@H](n2nnc3c(O[C@@H](C)[C@@H]4CCCN4C)nc4c(F)c(-c5cnc(C)c6ccccc56)c(C)cc4c32)C[C@H]1CC#N` (single isomer, unassigned) [Example 26a], for which the IC50 is 50 to 100 nM in assay [1] (Homo sapiens); at most 50 nM at KRAS G12C; at most 50 nM with KRAS_G12C pERK (Homo sapiens, 4 h).

Consider `C=C(F)C(=O)N1CC[C@H](n2nnc3c(O[C@@H](C)[C@@H]4CCCN4C)nc4c(F)c(-c5c(F)ccc6cccnc56)c(C)cc4c32)C[C@H]1CC#N` (single isomer, unassigned) [Example 27a], for which the IC50 in assay [1] (Homo sapiens) is 50 to 100 nM; at KRAS G12C it was at most 50 nM; with KRAS_G12C pERK (Homo sapiens, 4 h), at most 50 nM.

For the compound `C=C(F)C(=O)N1CC[C@H](n2nnc3c(O[C@@H](C)[C@@H]4CCCN4C)nc4c(F)c(-c5c(F)ccc6cccnc56)c(C)cc4c32)C[C@H]1CC#N` (single isomer, unassigned) [Example 27b], the IC50 in assay [1] is 50 to 100 nM; at KRAS G12C it was at most 50 nM; in the assay on KRAS_G12C pERK it was at most 50 nM.

`COC/C=C/C(=O)N1CC[C@H](n2nnc3c(N4CC(C)(N(C)C)C4)nc4c(F)c(-c5cccc(C)c5C)c(C)cc4c32)C[C@H]1CC#N` [Example 6, 2-((2S,4S)-4-(4-(3-(dimethylamino)-3-methylazetidin-1-yl)-7-(2,3-dimethylphenyl)-6-fluoro-8-methyl-1H-[1,2,3]triazolo[4,5-c]quinolin-1-yl)-1-((E)-4-methoxybut-2-enoyl)piperidin-2-yl)acetonitrile]: the IC50 was 100 to 1000 nM in assay [1] (Homo sapiens); at most 50 nM on KRAS G12C; at most 50 nM in the assay with KRAS_G12C pERK (Homo sapiens, 4 h).

As to `COC/C=C/C(=O)N1CC[C@H](n2nnc3c(O[C@@H](C)[C@@H]4CCCN4C)nc4c(F)c(-c5nn(C)c6ccccc56)c(C)cc4c32)C[C@H]1CC#N` [Example 9, 2-((2S,4S)-4-(6-fluoro-8-methyl-7-(1-methyl-1H-indazol-3-yl)-4-((S)-1-((S)-1-methylpyrrolidin-2-yl)ethoxy)-1H-[1,2,3]triazolo[4,5-c]quinolin-1-yl)-1-((E)-4-methoxybut-2-enoyl)piperidin-2-yl)acetonitrile], the IC50 in assay [1] (Homo sapiens) was at most 50 nM; at KRAS G12C, at most 50 nM; with KRAS_G12C pERK (Homo sapiens, 4 h), at most 50 nM.

Take `C=C(F)C(=O)N1CC[C@H](n2nnc3c(O[C@@H](C)[C@@H]4CCCN4C)nc4c(F)c(-c5ncc(F)c6ccccc56)c(C)cc4c32)C[C@H]1CC#N` [Example 22, 2-((2S,4S)-4-(6-fluoro-7-(4-fluoroisoquinolin-1-yl)-8-methyl-4-((S)-1-((S)-1-methylpyrrolidin-2-yl)ethoxy)-1H-[1,2,3]triazolo[4,5-c]quinolin-1-yl)-1-(2-fluoroacryloyl)piperidin-2-yl)acetonitrile]: the IC50 was at most 50 nM in assay [1] (Homo sapiens); at most 50 nM at KRAS G12C; at most 50 nM with KRAS_G12C pERK (Homo sapiens, 4 h).

The values above are taken from US12441727B2, “Tricyclic compounds as inhibitors of KRAS” (Incyte Corporation, priority 2021, dated 2025).
